# Assay results from BindingDB's records for patent US20240189287 (Bionanosim (Bns, 2024).
# Molecular target: Cannabinoid receptor 1 (Mus musculus, UniProt P47746)
# Test: CB1 receptor binding assay
# From the text: Mouse brain membranes were used as the source material for CB1 receptors. […] Briefly.
# Cannabinoid receptor 1, sequence (P47746 whole entry): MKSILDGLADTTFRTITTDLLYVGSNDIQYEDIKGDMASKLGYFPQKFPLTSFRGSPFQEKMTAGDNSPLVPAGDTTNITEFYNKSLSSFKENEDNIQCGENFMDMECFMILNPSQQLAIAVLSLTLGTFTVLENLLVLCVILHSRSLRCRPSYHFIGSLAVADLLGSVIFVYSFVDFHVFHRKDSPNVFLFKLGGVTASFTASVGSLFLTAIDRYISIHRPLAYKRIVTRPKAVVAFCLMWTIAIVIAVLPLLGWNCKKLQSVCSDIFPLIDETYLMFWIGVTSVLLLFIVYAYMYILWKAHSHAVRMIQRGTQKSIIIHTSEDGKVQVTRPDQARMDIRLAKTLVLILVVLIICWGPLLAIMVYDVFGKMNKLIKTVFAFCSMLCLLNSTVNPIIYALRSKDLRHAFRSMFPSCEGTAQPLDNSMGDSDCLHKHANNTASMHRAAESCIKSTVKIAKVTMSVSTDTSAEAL
smiles,measurement,value
"O=S(=O)(NC1CCCOc2c1nn(-c1ccccc1Cl)c2-c1ccc(Cl)cc1)c1ccc(Cl)cc1 (stereo unspecified) [US20240189287, Compound BNS808]",Ki,600 pM
